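Here, GI50 denotes the concentration required for 50% inhibition of growth. TGI: concentration producing complete growth inhibition.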
How the values were obtained:
Experiment in all cases: NCI anticancer screen, dose series, 384-well format
[1] = test system: SR leukemia
[2] = test system: SNB-19 CNS
[3] = test system: KM12 colon
[4] = test system: A498 renal
[5] = test system: DU-145 prostate
[6] = test system: RXF 393 renal
[7] = test system: RPMI-8226 leukemia
[8] = test system: HCT-116 colon
[9] = test system: LOX IMVI melanoma
[10] = test system: EKVX NSCLC
[11] = test system: SK-MEL-2 melanoma
[12] = test system: A549 NSCLC
[13] = test system: SK-MEL-5 melanoma
[14] = test system: SF-539 CNS
[15] = test system: PC-3 prostate
[16] = test system: HL-60(TB) leukemia
[17] = test system: CCRF-CEM leukemia
[18] = test system: 786-0 renal
[19] = test system: TK-10 renal
[20] = test system: NCI-H322M lung
[21] = test system: U251 glioblastoma
[22] = test system: M14 melanoma
[23] = test system: NCI/ADR-RES ovarian
[24] = test system: MALME-3M melanoma
[25] = test system: SW-620 colon
[26] = test system: OVCAR-5 ovarian
[27] = test system: ACHN renal
[28] = test system: MCF7 breast
[29] = test system: SK-OV-3 ovarian
[30] = test system: T-47D breast
[31] = test system: NCI-H226 lung
[32] = test system: SNB-75 CNS
[33] = test system: MDA-MB-435 melanoma
[34] = test system: BT-549 breast
[35] = test system: NCI-H522 lung
[36] = test system: CAKI-1 renal
[37] = test system: OVCAR-4 ovarian
[38] = test system: K-562 leukemia
[39] = test system: HCC-2998 colon
[40] = test system: MDA-MB-468 breast
[41] = test system: MOLT-4 leukemia
[42] = test system: HS 578T breast
[43] = test system: MDA-MB-231 breast
[44] = test system: OVCAR-3 ovarian
[45] = test system: UO-31 renal
[46] = test system: HCT-15 colon
[47] = test system: OVCAR-8 ovarian
[48] = test system: HOP-62 NSCLC
[49] = test system: HOP-92 NSCLC
[50] = test system: NCI-H460 NSCLC
[51] = test system: IGROV1 ovarian
[52] = test system: SF-268 CNS
[53] = test system: UACC-62 melanoma
[54] = test system: SF-295 CNS
[55] = test system: HT29 colon
[56] = test system: COLO 205 colon
[57] = test system: SN12C renal
[58] = test system: NCI-H23 lung
[59] = test system: UACC-257 melanoma
[60] = test system: SK-MEL-28 melanoma

In the case of `Cc1cnc(NC2CCOCC2)nc1-n1cnc(C(=O)N[C@H](CN)c2cc(F)cc(Cl)c2)c1`, the GI50 [1] is reported as 2.54 µM, the TGI [1] is reported as 11 µM and the GI50 [2] is reported as 3.68 µM. For the same compound, the TGI [2] was 21.5 µM, the GI50 [3] was 0.0295 µM and the TGI [3] was 17.5 µM. The GI50 [4] was 0.405 µM, the TGI [4] was 12.1 µM and the GI50 [5] was 0.768 µM. For the same compound, the TGI [5] was 25.5 µM, the GI50 [6] was 1.59 µM and the TGI [6] was 15 µM. The GI50 [7] was 2.55 µM, the TGI [7] was 14.5 µM and the GI50 [8] was less than 0.01 µM. The TGI [8] was 0.0348 µM, the GI50 [9] was less than 0.01 µM and the TGI [9] was 0.0258 µM. It also gave a GI50 [10] of 0.524 µM, a TGI [10] of 14.4 µM and a GI50 [11] of less than 0.01 µM. It also gave a TGI [11] of 0.0235 µM, a GI50 [12] of 0.0423 µM and a TGI [12] of 18.5 µM. It also gave a GI50 [13] of 0.0173 µM, a TGI [13] of 4.58 µM and a GI50 [14] of 2.05 µM. It also gave a TGI [14] of 12.4 µM, a GI50 [15] of 6.1 µM and a TGI [15] of 20.2 µM. The GI50 [16] was 0.0172 µM, the TGI [16] was 1.24 µM and the GI50 [17] was 1.47 µM. The TGI [17] was 3.19 µM, the GI50 [18] was 2.2 µM and the TGI [18] was 16.3 µM. The GI50 [19] was 0.0919 µM, the TGI [19] was 3.7 µM and the GI50 [20] was 0.0215 µM. It also gave a TGI [20] of 23.9 µM, a GI50 [21] of 0.0756 µM and a TGI [21] of 10.5 µM. The GI50 [22] was less than 0.01 µM, the TGI [22] was 0.0408 µM and the GI50 [23] was 25.7 µM. The TGI [23] was greater than 100 µM, the GI50 [24] was less than 0.01 µM and the GI50 [25] was 0.0225 µM. It also gave a TGI [25] of 10.5 µM, a GI50 [26] of less than 0.01 µM and a TGI [26] of 46.9 µM. It also gave a GI50 [27] of 1.27 µM, a TGI [27] of 18 µM and a GI50 [28] of 1.09 µM. The TGI [28] was 13.2 µM, the GI50 [29] was 0.807 µM and the TGI [29] was 15.4 µM. The GI50 [30] was 15.6 µM, the TGI [30] was 30.3 µM and the GI50 [31] was 0.063 µM. It also gave a TGI [31] of 38.3 µM, a GI50 [32] of 11.4 µM and a TGI [32] of 23.6 µM. For the same compound, the GI50 [33] was 0.0181 µM, the TGI [33] was 17.9 µM and the GI50 [34] was 2.21 µM. It also gave a TGI [34] of 13 µM, a GI50 [35] of 0.0524 µM and a TGI [35] of 16.9 µM. It also gave a GI50 [36] of 0.0705 µM, a TGI [36] of 11.5 µM and a GI50 [37] of 21.1 µM. For the same compound, the TGI [37] was 48.5 µM, the GI50 [38] was 0.198 µM and the TGI [38] was 2.52 µM. For the same compound, the GI50 [39] was less than 0.01 µM, the TGI [39] was 0.0123 µM and the GI50 [40] was 0.351 µM. It also gave a TGI [40] of 2.32 µM, a GI50 [41] of 1.26 µM and a TGI [41] of 2.54 µM. The GI50 [42] was 0.509 µM, the TGI [42] was 21.1 µM and the GI50 [43] was 0.0374 µM. For the same compound, the TGI [43] was 21.5 µM, the GI50 [44] was 1.05 µM and the TGI [44] was 16.8 µM. The GI50 [45] was 0.577 µM, the TGI [45] was 10.6 µM and the GI50 [46] was 2.78 µM. For the same compound, the TGI [46] was 20.8 µM, the GI50 [47] was 4.35 µM and the TGI [47] was 19.7 µM. The GI50 [48] was 1.26 µM, the TGI [48] was 17.3 µM and the GI50 [49] was 0.0238 µM. It also gave a TGI [49] of 0.0814 µM, a GI50 [50] of 0.0985 µM and a TGI [50] of 13.6 µM. The GI50 [51] was 0.0403 µM, the TGI [51] was 7.92 µM and the GI50 [52] was 6.61 µM. It also gave a TGI [52] of 20.4 µM, a GI50 [53] of less than 0.01 µM and a TGI [53] of 0.0412 µM. For the same compound, the GI50 [54] was 3.58 µM and the TGI [54] was 16.3 µM.
Compound `CNC[C@@H](NC(=O)c1ccc(-c2nc([C@H]3CC[C@H](O)[C@@H](F)C3)cnc2N)cc1F)c1cc(F)cc(Br)c1` has a GI50 [1] of 12.1 µM, a TGI [1] of 24.5 µM and a GI50 [55] of 16.1 µM. The TGI [55] was 29.9 µM, the GI50 [2] was 19.1 µM and the TGI [2] was 33.3 µM. For the same compound, the GI50 [3] was 17.5 µM, the TGI [3] was 31.5 µM and the GI50 [4] was 16.6 µM. It also gave a TGI [4] of 30.3 µM, a GI50 [5] of 18.5 µM and a TGI [5] of 32.8 µM. For the same compound, the GI50 [6] was 15.3 µM, the TGI [6] was 28.7 µM and the GI50 [7] was 12.4 µM. It also gave a TGI [7] of 24.9 µM, a GI50 [56] of 16.4 µM and a TGI [56] of 30.1 µM. The GI50 [8] was 16.8 µM, the TGI [8] was 30.6 µM and the GI50 [9] was 23.1 µM. The TGI [9] was 37.7 µM, the GI50 [11] was 20.5 µM and the TGI [11] was 34.8 µM. For the same compound, the GI50 [12] was 17 µM, the TGI [12] was 31.1 µM and the GI50 [13] was 20.8 µM. It also gave a TGI [13] of 35.2 µM, a GI50 [14] of 17.2 µM and a TGI [14] of 31 µM. It also gave a GI50 [57] of 18.5 µM, a TGI [57] of 32.5 µM and a GI50 [15] of 17.6 µM. For the same compound, the TGI [15] was 31.5 µM, the GI50 [16] was 13.9 µM and the TGI [16] was 26.9 µM. The GI50 [17] was 16.8 µM, the TGI [17] was 30.5 µM and the GI50 [18] was 15 µM. It also gave a TGI [18] of 28.3 µM, a GI50 [19] of 17 µM and a TGI [19] of 31.4 µM. The GI50 [20] was 18.7 µM, the TGI [20] was 33.4 µM and the GI50 [21] was 17.5 µM. For the same compound, the TGI [21] was 31.4 µM, the GI50 [22] was 18.2 µM and the TGI [22] was 32.2 µM. The GI50 [23] was 48.5 µM, the TGI [23] was greater than 100 µM and the GI50 [24] was 17.1 µM. The TGI [24] was 30.9 µM, the GI50 [25] was 20.6 µM and the TGI [25] was 35.1 µM. For the same compound, the GI50 [26] was 17.5 µM, the TGI [26] was 33.5 µM and the GI50 [27] was 16.9 µM. It also gave a TGI [27] of 30.6 µM, a GI50 [28] of 18 µM and a TGI [28] of 31.9 µM. The GI50 [29] was 16.9 µM, the TGI [29] was 30.7 µM and the GI50 [30] was 22.5 µM. The TGI [30] was 37.2 µM, the GI50 [31] was 18.6 µM and the TGI [31] was 33 µM. For the same compound, the GI50 [33] was 20.3 µM, the TGI [33] was 34.7 µM and the GI50 [34] was 13.7 µM. For the same compound, the TGI [34] was 26.6 µM, the GI50 [35] was 18.2 µM and the TGI [35] was 32.1 µM. For the same compound, the GI50 [36] was 16.9 µM, the TGI [36] was 30.9 µM and the GI50 [37] was 19.9 µM. The TGI [37] was 36.1 µM, the GI50 [38] was 16.8 µM and the TGI [38] was 30.5 µM. It also gave a GI50 [39] of 17.2 µM, a TGI [39] of 31 µM and a GI50 [58] of 19.4 µM. For the same compound, the TGI [58] was 36.9 µM, the GI50 [40] was 18.3 µM and the TGI [40] was 32.2 µM. For the same compound, the GI50 [41] was 17.7 µM, the TGI [41] was 31.6 µM and the GI50 [43] was 20.1 µM. It also gave a TGI [43] of 34.4 µM, a GI50 [44] of 18 µM and a TGI [44] of 32 µM. For the same compound, the GI50 [59] was 14.6 µM, the TGI [59] was 27.8 µM and the GI50 [45] was 1.39 µM. The TGI [45] was 2.87 µM, the GI50 [46] was 19.4 µM and the TGI [46] was 33.7 µM. The GI50 [47] was 18.9 µM, the TGI [47] was 33.1 µM and the GI50 [48] was 17.8 µM. For the same compound, the TGI [48] was 31.7 µM, the GI50 [60] was 18.8 µM and the TGI [60] was 33 µM. It also gave a GI50 [49] of 16.8 µM, a TGI [49] of 30.6 µM and a GI50 [50] of 18.8 µM. For the same compound, the TGI [50] was 33.2 µM, the GI50 [51] was 17.9 µM and the TGI [51] was 34.5 µM. It also gave a GI50 [52] of 17.2 µM, a TGI [52] of 31.1 µM and a GI50 [53] of 16.7 µM. For the same compound, the TGI [53] was 30.5 µM, the GI50 [54] was 18.5 µM and the TGI [54] was 32.6 µM.

Reference: PubChem BioAssay (NCI)
